{"source": "patent US20130217644A1", "about": "“Pharmaceutical Compositions of 2'-C-Methyl-Guanosine, 5'-[2[(3-Hydroxy-2,2-Dimethyl-1-Oxopropyl)Thio]Ethyl N-(Phenylmethyl)Phosphoramidate]” (IDENIX PHARMACEUTICALS, INC., priority 2012, published 2013)", "key": {"[1]": {"assay": "Open-label randomized cross-over single-dose pharmacokinetic study, tablet vs liquid filled capsule", "assay_type": "in vivo, human", "conditions": "50 mg single doses (tablet and capsule), healthy male subjects", "description": "A lot of tablets manufactured under cGMP conditions utilizing the composition of Example 3 (with appropriate adjustment of the weight % of PROSOLV SMCC 90 to account for the potency of Compound 1) were utilized in a pharmacokinetic study. The human clinical study was study performed in conformance with the Declaration of Helsinki and approved by a local Ethics Committee. An open-label randomized cross-over single-dose pharmacokinetic effect study was conducted in 12 healthy male subjects (ages 19-65) to compare the relative exposure of the tablet composition (50 mg compound 1) as compared to the liquid filled capsule composition (50 mg of compound 1) in the fasted state. In addition, an un-randomized third period followed the first two periods in which all 12 subjects were dosed with the tablet composition (50 mg compound 1) in the fed state, and 8 of the 12 subjects returned for a fourth period in which the 8 subjects were dosed with the liquid filled capsule composition (50 mg compound 1) in the fed state. Plasma samples for pharmacokinetic (PK) analysis were taken over a period of 120 h after dosing during each treatment period. Dosing days were at least 6 days apart (Period 1, days 1 to 6; Period 2, days 7 to 13, Period 3, days 14 to 20; and Period 4 followed the initial three periods). […] The pharmacokinetic samples were assayed for 2′-C-methyl-guanosine as well as compound 1."}, "[2]": {"tested_on": "HCV replication", "conditions": "in-vitro assays, as described in U.S. Pat. No. 7,951,789; cited from earlier work"}, "[3]": {"assay": "Excipient compatibility: ethylene sulfide in 1:1 blends of compound 1 and excipient", "assay_type": "physicochemical", "conditions": "1:1 weight ratio of compound 1 and excipient, glass vials, gentle rotation 30 minutes, ambient conditions", "description": "Excipient compatibility of compound 1 with various excipients was determined. Samples of a 1:1 weight ratio of compound 1 and each excipient were blended in glass vials. The vials were subjected to gentle rotation to 30 minutes at ambient conditions. Samples were assayed for ethylene sulfide. Table 3 below presented the results for a selected group of the excipients evaluated: […]"}}}
{"molecule": "CC(C)(CO)C(=O)SCCOP(=O)(NCc1ccccc1)OC[C@H]1O[C@@H](n2cnc3c(=O)[nH]c(N)nc32)C(C)(O)C1O", "note": "(stereo partly drawn) [Compound 1, 2′-C-methyl-guanosine, 5′-[2-[(3-hydroxy-2,2-dimethyl-1-oxopropyl)thio]ethyl N-(phenylmethyl)phosphoramidate]]", "values": [{"measurement": "serious adverse events", "setting": "[1]", "value": "No serious adverse events were reported"}, {"measurement": "inhibition of HCV replication (in words)", "setting": "[2]", "value": "ability to inhibit HCV replication"}, {"measurement": "ppm Ethylene Sulfide Mean of 4 samples", "setting": "[3]", "value": "<9", "unit": "ppm"}]}
